Values after ≈ are worked out from the molar mass of the structure shown. Like-named read-outs stand apart in the source and are kept apart here.
Tests used:
[1] = tested on: Fusarium sp. 2; assay: microbe, parasite or virus in culture; format: cell-based; conditions: for MIC50 / MIC90: antifungal alone
[2] = tested on: Cladosporium sp.; assay: Antifungal MIC 50 / MIC 90 alone and combined with Tricide; format: cell-based; conditions: for MIC50 / MIC90: antifungal alone
[3] = tested on: Curvularia sp.; assay: as above; format: cell-based; conditions: for Summary % reduction in MIC 50 using Tricide / Summary % reduction in MIC 90 using Tricide / MIC50 / MIC90: Curvularia sp.; for MIC50 / MIC90: antifungal alone;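 as to all read-outs here: antifungal MIC 50 and MIC 90 values against fungal isolates, with percent figures expressing how much the MIC fell once Tricide was added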
[4] = tested on: Candidia albicans ATCC 90028; assay: as above; format: cell-based, Candida albicans; conditions: for MIC50 / MIC90: ATCC90028, antifungal alone; for MIC50 / MIC90 / Summary % reduction in MIC 50 using Tricide / Summary % reduction in MIC 90 using Tricide: Candidia albicans ATCC 90028;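 as to all read-outs here: MIC 50 and MIC 90 values are means, and the percent decrease is the drop in MIC when the antifungal is combined with Tricide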
[5] = tested on: Penicillium sp.; assay: as above; format: cell-based; conditions: for % decrease MIC 50 / % decrease MIC 90 / MIC 50 combined with Tricide / MIC 90 combined with Tricide: Tricide 200 ug/ml; for MIC50 / MIC90: antifungal alone
[6] = tested on: Fusarium sp. 3; assay: microbe, parasite or virus in culture; format: cell-based; conditions: for % decrease MIC 50 / % decrease MIC 90 / MIC 50 combined with Tricide / MIC 90 combined with Tricide: Tricide 540 ug/ml; for MIC50 / MIC90: antifungal alone
[7] = tested on: Fusarium sp. 1; assay: microbe, parasite or virus in culture; format: cell-based; conditions: for Summary % reduction in MIC 50 using Tricide / Summary % reduction in MIC 90 using Tricide: Fasarium sp. 1; for MIC50 / MIC90: antifungal alone;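 as to all read-outs here: mean MIC 50 and MIC 90 values against fungal isolates, with percent decrease in MIC when the antifungal is combined with Tricide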
[8] = tested on: Paecilomyces variotti ATCC 36257; assay: Antifungal MIC 50 / MIC 90 alone and combined with Tricide; format: cell-based; conditions: for MIC50 / MIC90: ATCC36257; for Summary % reduction in MIC 50 using Tricide / Summary % reduction in MIC 90 using Tricide: Paecilomyces variotti ATCC36257; for % decrease MIC 50 / % decrease MIC 90 / MIC 50 combined with Tricide / MIC 90 combined with Tricide: Paecilomyces variotti, Tricide […]
[9] = tested on: Aspergillus sp.; assay: as above; format: cell-based; conditions: for % decrease MIC 50 / % decrease MIC 90 / MIC 50 combined with Tricide / MIC 90 combined with Tricide: Aspergillus sp.; for MIC50 / MIC90: Aspergillus, antifungal alone; for MIC50 / MIC90 / Summary % reduction in MIC 50 using Tricide / Summary % reduction in MIC 90 using Tricide: Aspergiullus sp.
[10] = Curvilaria sp., Tricide 200 ug/ml
[11] = Fusarium sp. 1, Tricide 540 ug/ml

Which results are given for `C[C@@H]1C/C=C/C=C/C=C/C=C/[C@H](O[C@@H]2O[C@H](C)[C@@H](O)[C@H](N)[C@@H]2O)C[C@@H]2O[C@](O)(C[C@@H](O)C[C@H]3O[C@@H]3/C=C/C(=O)O1)C[C@H](O)[C@H]2C(=O)O` [Natamycin, natamycin]?
Summary % reduction in MIC 50 using Tricide [1]: 100%; Summary % reduction in MIC 90 using Tricide [1]: >99%-100%; % decrease MIC 50 ([1]; Tricide 540 ug/ml): 100%; % decrease MIC 90 ([1]; Tricide 540 ug/ml): >99-100% ^; MIC 50 combined with Tricide ([1]; Tricide 540 ug/ml): 0 mg/L; MIC 90 combined with Tricide ([1]; Tricide 540 ug/ml): 0 to 1.92 mg/L; MIC50 [1]: > 19.2 mg/L; MIC90 [1]: > 19.2 mg/L; MIC50 [2]: > 19.2 mg/L; MIC90 [2]: > 19.2 mg/L; % decrease MIC 50 [3, 10]: 100%; % decrease MIC 90 [3, 10]: 100%; MIC 50 combined with Tricide [3, 10]: 0 mg/L; Summary % reduction in MIC 50 using Tricide [3]: 100%; Summary % reduction in MIC 90 using Tricide [3]: 100%; MIC50 [3]: 9.6 mg/L; MIC90 [3]: 19.2 mg/L; MIC50 ([4]; Candida albicans): > 14.4 mg/L; MIC90 ([4]; Candida albicans): > 19.2 mg/L; % decrease MIC 50 ([4]; Candida albicans, Tricide […]): 99.3%; % decrease MIC 90 ([4]; Candida albicans, Tricide […]): 90%; MIC 50 combined with Tricide ([4]; Candida albicans, Tricide […]): ≦0.10 ug/ml; MIC 90 combined with Tricide ([4]; Candida albicans, Tricide […]): 4.92 mg/L; Summary % reduction in MIC 50 using Tricide [4]: 99.3%; Summary % reduction in MIC 90 using Tricide [4]: 90%; Summary % reduction in MIC 50 using Tricide [5]: 100%; Summary % reduction in MIC 90 using Tricide [5]: 100%; % decrease MIC 50 [5]: 100%; % decrease MIC 90 [5]: 100%; MIC 50 combined with Tricide [5]: 0 mg/L; MIC 90 combined with Tricide [5]: 0 mg/L; MIC50 [5]: 9.6 mg/L; MIC90 [5]: 19.2 mg/L; Summary % reduction in MIC 50 using Tricide [6]: 100%; Summary % reduction in MIC 90 using Tricide [6]: 100%; % decrease MIC 50 [6]: 100%; % decrease MIC 90 [6]: 100%; MIC 50 combined with Tricide [6]: 0 mg/L; MIC 90 combined with Tricide [6]: 0 mg/L; MIC50 [6]: > 19.2 mg/L; MIC90 [6]: > 19.2 mg/L; Summary % reduction in MIC 50 using Tricide [7]: 100%; Summary % reduction in MIC 90 using Tricide [7]: 100%; % decrease MIC 50 [7, 11]: 100%; % decrease MIC 90 [7, 11]: 100%; MIC 50 combined with Tricide [7, 11]: 0 mg/L; MIC 90 combined with Tricide [7, 11]: 0 mg/L; MIC50 ([7]; Fusarium sp. 1): > 19.2 mg/L; MIC90 ([7]; Fusarium sp. 1): > 19.2 mg/L; MIC50 ([8]; Paecilomyces variotti ATCC 36257, antifungal alone, read-out: MIC 50): 2.4 to 4.8 mg/L; MIC90 ([8]; Paecilomyces variotti ATCC 36257, antifungal alone, read-out: MIC 90): 9.6 mg/L; Summary % reduction in MIC 50 using Tricide [8]: 75-87.5%^; Summary % reduction in MIC 90 using Tricide [8]: 50%; % decrease MIC 50 [8]: 75%-87.5%; % decrease MIC 90 [8]: 50%; MIC 50 combined with Tricide [8]: 0.6 mg/L; MIC 90 combined with Tricide [8]: 4.8 mg/L; % decrease MIC 50 ([9]; Tricide 200 ug/ml): 93.8%; % decrease MIC 90 ([9]; Tricide 200 ug/ml): 0%; MIC 50 combined with Tricide ([9]; Tricide 200 ug/ml): 1.2 mg/L; MIC 90 combined with Tricide ([9]; Tricide 200 ug/ml): >19.2 mg/L; % decrease MIC 50 ([9]; Tricide 400 ug/ml): 100%; % decrease MIC 90 ([9]; Tricide 400 ug/ml): 100%; MIC 50 combined with Tricide ([9]; Tricide 400 ug/ml): 0 mg/L; MIC 90 combined with Tricide ([9]; Tricide 400 ug/ml): 0 mg/L; MIC50 [9]: > 19.2 mg/L; MIC90 [9]: 19.2 mg/L; Summary % reduction in MIC 50 using Tricide [9]: 100%; Summary % reduction in MIC 90 using Tricide [9]: 100%

What does the source list for `CC(=O)N1CCN(c2ccc(OCC3COC(Cn4ccnc4)(c4ccc(Cl)cc4Cl)O3)cc2)CC1` (stereo not shown) [Ketoconazole, ketoconazole]?
Summary % reduction in MIC 50 using Tricide [1]: >99.5%-100%; Summary % reduction in MIC 90 using Tricide [1]: 99.9%-100%; % decrease MIC 50 ([1]; Tricide 540 ug/ml): >99.5-100% ^; % decrease MIC 90 ([1]; Tricide 540 ug/ml): >99.9-100% ^; MIC50 [1]: 11.2 mg/L (≈ 21.1 µM); MIC90 [1]: 64 mg/L (≈ 120 µM); Summary % reduction in MIC 50 using Tricide [2]: 75%; Summary % reduction in MIC 90 using Tricide [2]: 94%; % decrease MIC 50 ([2]; Tricide 200 ug/ml): >75%; % decrease MIC 90 ([2]; Tricide 200 ug/ml): 94%; MIC 90 combined with Tricide ([2]; Tricide 200 ug/ml): 0.125 mg/L; MIC50 [2]: 0.5 mg/L; MIC90 [2]: 2 mg/L; % decrease MIC 50 [3, 10]: 96.3-100%^; % decrease MIC 90 [3, 10]: 74-100% ^; MIC 50 combined with Tricide [3, 10]: 0 to 0.0250 mg/L; MIC 90 combined with Tricide [3, 10]: 0 to 0.4 mg/L; Summary % reduction in MIC 50 using Tricide [3]: 96.3%-100%; Summary % reduction in MIC 90 using Tricide [3]: 74%-100%; MIC50 [3]: 0.667 mg/L; MIC90 [3]: 1.56 mg/L; MIC50 ([4]; Candida albicans): 0.0313 mg/L; MIC90 ([4]; Candida albicans): > 1 mg/L; % decrease MIC 50 ([4]; Candida albicans, Tricide […]): 100%; % decrease MIC 90 ([4]; Candida albicans, Tricide […]): 100%; MIC 50 combined with Tricide ([4]; Candida albicans, Tricide […]): 0 mg/L; Summary % reduction in MIC 50 using Tricide [4]: 100%; Summary % reduction in MIC 90 using Tricide [4]: 100%; Summary % reduction in MIC 50 using Tricide [5]: 100%; Summary % reduction in MIC 90 using Tricide [5]: 100%; % decrease MIC 50 [5]: 100%; % decrease MIC 90 [5]: 100%; MIC 50 combined with Tricide [5]: 0 mg/L; MIC 90 combined with Tricide [5]: 0 mg/L; MIC50 [5]: 0.181 mg/L; MIC90 [5]: 0.5 mg/L; Summary % reduction in MIC 50 using Tricide [6]: 100%; Summary % reduction in MIC 90 using Tricide [6]: 100%; % decrease MIC 50 [6]: 100%; % decrease MIC 90 [6]: 100%; MIC 50 combined with Tricide [6]: 0 mg/L; MIC 90 combined with Tricide [6]: 0 mg/L; MIC50 [6]: > 128 mg/L; MIC90 [6]: > 128 mg/L; Summary % reduction in MIC 50 using Tricide [7]: >99.9%-100%; Summary % reduction in MIC 90 using Tricide [7]: 99.9%-100%; % decrease MIC 50 [7, 11]: >99.9-100% ^; % decrease MIC 90 [7, 11]: 99.9-100%^; MIC 90 combined with Tricide [7, 11]: 0 to 0.05 mg/L; MIC50 ([7]; Fusarium sp. 1): > 128 mg/L; MIC90 ([7]; Fusarium sp. 1): > 128 mg/L; Summary % reduction in MIC 50 using Tricide [8]: 100%; Summary % reduction in MIC 90 using Tricide [8]: 75%; % decrease MIC 50 [8]: 100%; % decrease MIC 90 [8]: 75%; MIC 50 combined with Tricide [8]: 0 mg/L; MIC 90 combined with Tricide [8]: 0.25 mg/L; MIC50 ([8]; Paecilomyces): 0.0382 mg/L; MIC90 ([8]; Paecilomyces): 1 mg/L; % decrease MIC 50 ([9]; Tricide 200 ug/ml): 87.5%; % decrease MIC 90 ([9]; Tricide 200 ug/ml): 95.8%; MIC 50 combined with Tricide ([9]; Tricide 200 ug/ml): 0.25 mg/L; MIC 90 combined with Tricide ([9]; Tricide 200 ug/ml): 0.5 mg/L; MIC50 [9]: 2 mg/L; MIC90 [9]: 12 mg/L; Summary % reduction in MIC 50 using Tricide [9]: 87.5%; Summary % reduction in MIC 90 using Tricide [9]: 95.8%

Reference: patent US20100298252A1, “METHODS AND COMPOSITIONS FOR OPHTHALMIC TREATMENT OF FUNGAL AND BACTERIAL INFECTIONS” (priority 2004, published 2010)
